Experimental data published in PubChem BioAssay AID1918998 (Molecular Pharmacology Branch, DTP, NCI, 2023).

System: 521955-158-R2-J5-PDC complex spheroid growth
Assay: Anticancer human tumor 521955-158-R2-J5-PDC patient-derived pancreatic carcinoma cell line growth inhibition [AhR]
Settings: for IC50: curve of first compound; for viability, T/C: stronger effect = lower value
Summary of the method: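 Complex tumor spheroids co-cultured with HUVEC and human MSC stroma; AhR antagonists tested in combination with standard-of-care and investigational agents. Top concentration at or near clinical Cmax (else 10 microM), half-log dilutions; growth expressed as percent test/control.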

[1] = second compound 0.1 µM, first compound 0.0316 µM
[2] = second compound 0.1 µM, first compound 0.1 µM
[3] = second compound 0.316 µM, first compound 0.0316 µM
[4] = second compound 0.316 µM, first compound 0.1 µM
[5] = second compound 1 µM, first compound 0.0316 µM
[6] = second compound 1 µM, first compound 0.1 µM
[7] = second compound 3.16 µM, first compound 0.0316 µM
[8] = second compound 3.16 µM, first compound 0.1 µM
[9] = second compound 10 µM, first compound 0.0316 µM
[10] = second compound 10 µM, first compound 0.1 µM
[11] = second compound 0.1 µM, first compound 0.316 µM
[12] = second compound 0.1 µM, first compound 1 µM
[13] = second compound 0.1 µM, first compound 3.16 µM
[14] = second compound 0.1 µM, first compound 10 µM
[15] = second compound 0.316 µM, first compound 0.316 µM
[16] = second compound 0.316 µM, first compound 1 µM
[17] = second compound 0.316 µM, first compound 3.16 µM
[18] = second compound 0.316 µM, first compound 10 µM
[19] = second compound 1 µM, first compound 0.316 µM
[20] = second compound 1 µM, first compound 1 µM
[21] = second compound 1 µM, first compound 3.16 µM
[22] = second compound 1 µM, first compound 10 µM
[23] = second compound 3.16 µM, first compound 0.316 µM
[24] = second compound 3.16 µM, first compound 1 µM
[25] = second compound 3.16 µM, first compound 3.16 µM
[26] = second compound 3.16 µM, first compound 10 µM
[27] = second compound 10 µM, first compound 0.316 µM
[28] = second compound 10 µM, first compound 1 µM
[29] = second compound 10 µM, first compound 3.16 µM
[30] = second compound 10 µM, first compound 10 µM
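Wherever viability, T/C is given: spheroids mix tumor cells with HUVEC endothelium and human MSC stroma; luminescence taken as viability surrogate after a week of drug exposure.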

SMILES	IC50 (second compound 0.1 µM) [nM]	IC50 (second compound 0.316 µM) [nM]	IC50 (second compound 1 µM) [nM]	IC50 (second compound 3.16 µM) [nM]	IC50 (second compound 10 µM) [nM]	viability, T/C [1] [%]	viability, T/C [2] [%]	viability, T/C [3] [%]	viability, T/C [4] [%]	viability, T/C [5] [%]	viability, T/C [6] [%]	viability, T/C [7] [%]	viability, T/C [8] [%]	viability, T/C [9] [%]	viability, T/C [10] [%]	viability, T/C [11] [%]	viability, T/C [12] [%]	viability, T/C [13] [%]	viability, T/C [14] [%]	viability, T/C [15] [%]	also measured
CC[C@@]1(O)C(=O)OCc2c1cc1n(c2=O)Cc2cc3c(CN(C)C)c(O)ccc3nc2-1 + Cc1cncc(-c2nc(NCCc3c[nH]c4ccccc34)c3ncn(C(C)C)c3n2)c1	54.2	43.7	43.1	58.3	> 100	72.3	28.1	61.6	27.1	56.9	25.9	72.6	30.5	103	38.5						viability, T/C (second compound 0.1 µM, first compound 0.000316 µM): 95.1%; viability, T/C (second compound 0.1 µM, first compound 0.001 µM): 95.6%; viability, T/C (second compound 0.1 µM, first compound 0.00316 µM): 101%; viability, T/C (second compound 0.1 µM, first compound 0.01 µM): 76.8%; viability, T/C (second compound 0.316 µM, first compound 0.000316 µM): 113%; viability, T/C (second compound 0.316 µM, first compound 0.001 µM): 105%; viability, T/C (second compound 0.316 µM, first compound 0.00316 µM): 109%; viability, T/C (second compound 0.316 µM, first compound 0.01 µM): 78.8%; viability, T/C (second compound 1 µM, first compound 0.000316 µM): 117%; viability, T/C (second compound 1 µM, first compound 0.001 µM): 133%; viability, T/C (second compound 1 µM, first compound 0.00316 µM): 100%; viability, T/C (second compound 1 µM, first compound 0.01 µM): 99%; viability, T/C (second compound 3.16 µM, first compound 0.000316 µM): 155%; viability, T/C (second compound 3.16 µM, first compound 0.001 µM): 141%; viability, T/C (second compound 3.16 µM, first compound 0.00316 µM): 143%; viability, T/C (second compound 3.16 µM, first compound 0.01 µM): 111%; viability, T/C (second compound 10 µM, first compound 0.000316 µM): 214%; viability, T/C (second compound 10 µM, first compound 0.001 µM): 158%; viability, T/C (second compound 10 µM, first compound 0.00316 µM): 144%; viability, T/C (second compound 10 µM, first compound 0.01 µM): 94.5%
COc1cc(C2c3cc4c(cc3C(OC3OC5COC(C)OC5C(O)C3O)C3COC(=O)C23)OCO4)cc(OC)c1O (stereo not given) + Cc1cncc(-c2nc(NCCc3c[nH]c4ccccc34)c3ncn(C(C)C)c3n2)c1	1080	1010	980	1050	1810	102	107	107	101	106	111	112	126	179	126	85	52.6	29	25.8	93.2	viability, T/C [16]: 49.1%; viability, T/C [17]: 27.4%; viability, T/C [18]: 19.2%; viability, T/C [19]: 86.5%; viability, T/C [20]: 50.2%; viability, T/C [21]: 27.9%; viability, T/C [22]: 23.6%; viability, T/C [23]: 118%; viability, T/C [24]: 50.9%; viability, T/C [25]: 34.4%; viability, T/C [26]: 26.2%; viability, T/C [27]: 118%; viability, T/C [28]: 56.9%; viability, T/C [29]: 31.6%; viability, T/C [30]: 25.1%
Nc1ccn(C2OC(CO)C(O)C2(F)F)c(=O)n1 (stereo not given) + Cc1cncc(-c2nc(NCCc3c[nH]c4ccccc34)c3ncn(C(C)C)c3n2)c1	571	501	860	967	604	67.6	65.7	87.5	80.8	104	86	116	97.5	151	99.3	62.2	38.4	31.8	24.7	58.9	viability, T/C [16]: 34.8%; viability, T/C [17]: 33.6%; viability, T/C [18]: 22.3%; viability, T/C [19]: 70.4%; viability, T/C [20]: 42.6%; viability, T/C [21]: 38.3%; viability, T/C [22]: 25.3%; viability, T/C [23]: 73.7%; viability, T/C [24]: 47.7%; viability, T/C [25]: 36%; viability, T/C [26]: 26.1%; viability, T/C [27]: 67.2%; viability, T/C [28]: 36%; viability, T/C [29]: 27.7%; viability, T/C [30]: 22.2%
